From US20170121315A1, “HETEROBICYCLICALLY SUBSTITUTED 4-OXOBUTANE ACID DERIVATIVES AND USE THEREOF” (priority 2014, published 2017) come the findings set out here.

Some results are limits rather than exact numbers.

What all share (assay type): biochemical
One test deals with T1, MMP-10 (Homo sapiens, UniProt P09238).
T1 construct: purchased R&D Systems 910-MP
As to the kind of experiment: In vitro MMP-10 inhibition test. The conditions noted are these: human MMP-10. The method, boiled down: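 APMA-activated recombinant MMP-10 (e.g. 2 nM final) with compound in Tris/HCl pH 7.5, CaCl2, NaCl, Brij-35 buffer; reaction started with quenched Mca/Dnp peptide substrate (e.g. 10 μM final). Fluorescence (ex 320/em 410 nm) followed e.g. 120 min at 32 °C; IC50 at 50% signal.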

In a further test the target is T2, MMP-16 (Homo sapiens, UniProt P51512).
T2 construct: purchased R&D Systems 1785-MP
As to the kind of experiment: In vitro MMP-16 inhibition test. To be noted: human MMP-16. The method, boiled down:
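Furin-activated recombinant MMP-16 (e.g. 1 nM final) with compound (e.g. 1 nM–30 μM, DMSO) in 50 mM Tris/HCl pH 7.5, 10 mM CaCl2, 150 mM NaCl, 0.05% Brij-35. Reaction started with quenched Mca-Lys-Pro-Leu-Gly-Leu-Dpa(Dnp)-Ala-Arg-NH2 (e.g. 5 μM) and read by fluorescence (ex 320/em 410 nm), e.g. over 120 min at 32 °C. IC50 taken at 50% signal.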

The target in another test is T3, MMP-3 (Homo sapiens, UniProt P08254).
T3 construct: purchased R&D Systems 513-MP
As to the kind of experiment: In vitro MMP-3 inhibition test. To be noted: human MMP-3. The method, boiled down: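 APMA-activated recombinant MMP-3 (e.g. 2 nM final) with compound in Tris/HCl pH 7.5, CaCl2, NaCl, Brij-35; reaction started with quenched Mca/Dnp peptide substrate (e.g. 10 μM final). Fluorescence (ex 320/em 410 nm) followed e.g. 120 min at 32 °C; IC50 is concentration giving 50% signal.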

The next test deals with T4, MMP-7 (Homo sapiens, UniProt P09237).
T4 construct: purchased R&D Systems 907-MP
T4 sequence (P09237 95-267): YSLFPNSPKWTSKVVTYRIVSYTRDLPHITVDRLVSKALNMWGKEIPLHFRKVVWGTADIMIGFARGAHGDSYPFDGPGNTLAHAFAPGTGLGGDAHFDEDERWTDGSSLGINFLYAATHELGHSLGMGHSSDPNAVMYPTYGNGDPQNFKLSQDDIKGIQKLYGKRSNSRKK
As to the kind of experiment: In vitro MMP-7 inhibition test. To be noted: human MMP-7.

T3 sequence (P08254 100-477): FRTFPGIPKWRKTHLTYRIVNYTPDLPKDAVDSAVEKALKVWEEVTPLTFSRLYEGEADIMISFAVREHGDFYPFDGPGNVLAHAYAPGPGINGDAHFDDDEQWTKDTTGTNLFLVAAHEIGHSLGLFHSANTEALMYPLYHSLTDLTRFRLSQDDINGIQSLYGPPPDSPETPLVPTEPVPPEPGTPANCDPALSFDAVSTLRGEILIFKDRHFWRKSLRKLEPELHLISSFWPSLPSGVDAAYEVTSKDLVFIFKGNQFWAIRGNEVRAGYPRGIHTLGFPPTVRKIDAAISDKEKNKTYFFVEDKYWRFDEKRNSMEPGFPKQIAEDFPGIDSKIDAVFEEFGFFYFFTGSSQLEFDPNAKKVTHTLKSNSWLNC
T1 sequence (P09238 99-476): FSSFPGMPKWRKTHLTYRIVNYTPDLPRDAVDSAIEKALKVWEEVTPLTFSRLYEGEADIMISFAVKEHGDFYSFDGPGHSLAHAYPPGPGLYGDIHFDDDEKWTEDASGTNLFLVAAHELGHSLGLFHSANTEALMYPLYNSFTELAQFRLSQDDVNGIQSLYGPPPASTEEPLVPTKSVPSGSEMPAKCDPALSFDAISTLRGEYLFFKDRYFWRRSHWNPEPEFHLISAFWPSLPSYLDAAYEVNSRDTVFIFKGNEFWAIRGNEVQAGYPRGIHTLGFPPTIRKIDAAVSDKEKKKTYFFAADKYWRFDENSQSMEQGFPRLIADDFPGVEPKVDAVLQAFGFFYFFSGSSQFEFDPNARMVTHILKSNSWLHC
T2 sequence (P51512 120-564 limits assumed): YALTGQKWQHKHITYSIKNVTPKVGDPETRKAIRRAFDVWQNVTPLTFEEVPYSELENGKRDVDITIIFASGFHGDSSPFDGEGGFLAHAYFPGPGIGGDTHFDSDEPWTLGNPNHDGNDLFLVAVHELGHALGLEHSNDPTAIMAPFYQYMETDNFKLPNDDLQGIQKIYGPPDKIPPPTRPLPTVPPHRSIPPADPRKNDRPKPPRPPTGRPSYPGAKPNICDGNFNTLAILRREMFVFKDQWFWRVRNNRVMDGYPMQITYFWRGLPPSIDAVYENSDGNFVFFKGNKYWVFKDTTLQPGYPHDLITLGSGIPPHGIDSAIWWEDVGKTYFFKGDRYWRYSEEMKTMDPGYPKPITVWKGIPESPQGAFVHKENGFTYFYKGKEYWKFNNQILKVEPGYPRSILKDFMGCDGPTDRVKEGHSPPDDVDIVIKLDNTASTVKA

`O=C(CC(CCn1nnc2ccccc2c1=O)C(=O)O)c1noc2cc(OCCc3ccccc3)ccc12` (racemic) [Example 144, (+/−)-4-Oxo-2-[2-(4-oxo-1,2,3-benzotriazin-3(4H)-yl)ethyl]-4-[6-(2-phenylethoxy)-1,2-benzoxazol-3-yl]butanoic acid]: the concentration for half-maximal inhibition (IC50) (in general, the concentration that inhibits the measured activity by half) at MMP-10 was 29 µM; against MMP-16, 15 µM; on MMP-3, 18 µM; against MMP-7, more than 40 µM.

Take `O=C(CC(CCn1nnc2ccccc2c1=O)C(=O)O)c1noc2cc(OCc3ccccc3)ccc12` (racemic) [Example 145, (+/−)-4-[6-(Benzyloxy)-1,2-benzoxazol-3-yl]-4-oxo-2-[2-(4-oxo-1,2,3-benzotriazin-3(4H)-yl)ethyl]butanoic acid]: the IC50 at MMP-10 was 10 µM; against MMP-16, 25 µM; against MMP-3 it was 8.9 µM; at MMP-7 it was more than 40 µM.

`O=C(CC(CCn1nnc2ccccc2c1=O)C(=O)O)c1cc2cc(OCCC3CCOCC3)ccc2o1` (racemic) [Example 6, (+/−)-4-Oxo-2-[2-(4-oxo-1,2,3-benzotriazin-3(4H)-yl)ethyl]-4-{5-[2-(tetrahydro-2H-pyran-4-yl)ethoxy]-1-benzofur-2-yl}butanoic acid]: the 50% inhibitory concentration (IC50) against MMP-10 is 7 µM; against MMP-16, more than 40 µM; at MMP-3, 26 µM; against MMP-7, more than 40 µM.

For `CCCCCOc1ccc2c(C(=O)CC(CCn3nnc4ccccc4c3=O)C(=O)O)noc2c1` (racemic) [Example 140, (+/−)-4-Oxo-2-[2-(4-oxo-1,2,3-benzotriazin-3(4H)-yl)ethyl]-4-[6-(pentyloxy)-1,2-benzoxazol-3-yl]butanoic acid], the half-maximal inhibitory concentration (IC50) was 6.3 µM on MMP-10, 24 µM against MMP-16, 14 µM on MMP-3 and more than 40 µM at MMP-7.

As for `O=C(CC(CCn1nnc2ccccc2c1=O)C(=O)O)c1cc2cc(OCc3ccc(C(F)(F)F)cc3)ccc2o1` (racemic) [Example 44, (+/−)-4-Oxo-2-[2-(4-oxo-1,2,3-benzotriazin-3(4H)-yl)ethyl]-4-(5-{[4-(trifluoromethyl)benzyl]oxy}-1-benzofur-2-yl)butanoic acid], the IC50 is 29 µM against MMP-10, more than 40 µM at MMP-16, 23 µM on MMP-3 and more than 40 µM on MMP-7.
